The record followed here is the PolyMetriX glass transition set.

Regarding `*C#Cc1cccc(C#C[Si](*)(C)C)c1` (repeat unit), the glass transition temperature stood at 50.00 °C.
To `*C(=O)CCCCCCCCC(=O)N1CC(C)N(*)CC1C` (repeat unit) belongs -60.50 °C; to `*CC(*)C(=O)Oc1cccc(C(=O)OC)c1` (repeat unit), 38.00 °C.
As for `*CC(*)C(=O)Oc1ccccc1C` (repeat unit), the glass transition temperature is 51.50 °C.
`*CC(*)C(=O)c1ccc(C(C)(C)C)cc1` (repeat unit) gave a glass transition temperature of 103.50 °C.
To `*CC(*)C(=O)c1ccc(C)c(C)c1` (repeat unit) belongs 42.00 °C; to `*CC(*)C(=O)c1ccc(CC)cc1` (repeat unit), 49.2 °C; to `*CC(*)C(=O)c1ccc(Cl)cc1` (repeat unit), 63.00 °C.
Compound `*CC(*)C(=O)n1c2ccccc2c2ccccc21` (repeat unit) returned a glass transition temperature of 50.10 °C.
As for `*CC(*)C1CCC(C(C)(C)C)CC1` (repeat unit), the glass transition temperature was found to be 131.00 °C.
Under `*CC(*)C1CCCC(C)C1` (repeat unit) stands 141.00 °C.
To `*CC(*)CC(C)(C)C` (repeat unit) belongs 190.00 °C; to `*CC(*)CC(C)C` (repeat unit), 35.20 °C; to `*CC(*)CC1CCCCC1` (repeat unit), 75.00 °C.
On to `*CC(*)CCCCCCCC` (repeat unit), for which the glass transition temperature is -35.00 °C.
Under `*CC(*)CCCI` (repeat unit) stands 30.00 °C; under `*CC(*)CC[Si](C)(C)C` (repeat unit), 132.00 °C.
To `*CC(*)CNc1ccc([N+](=O)[O-])cc1C` (repeat unit) belongs 151.00 °C.
The compound `*CC(*)CO` (repeat unit) registered a glass transition temperature of 36.00 °C.
Under `*CC(*)C[Si](C)(C)C` (repeat unit) stands 114.00 °C; under `*CC(*)N` (repeat unit), 57.00 °C.
Under `*CC(*)N1CCCC1=S` (repeat unit) stands 80.00 °C; under `*CC(*)N1CCCCCC1=O` (repeat unit), 174.60 °C; under `*CC(*)NC(=O)OC(C)(C)C` (repeat unit), 120.00 °C.
`*CC(*)OC(=O)C(C)(C)C(C)C(C)C` (repeat unit) had a glass transition temperature of 55.00 °C.
Take `*CC(*)OC(=O)C(C)(CC)C(C)(C)C` (repeat unit): the glass transition temperature stood at 120.00 °C.
To `*CC(*)OC(=O)C(F)(F)C(F)(F)C(F)(F)C(F)(F)C(F)(F)C(F)(F)C(F)(F)C(F)(F)C(F)(F)F` (repeat unit) belongs -18.00 °C; to `*CC(*)OC(=O)C(F)(F)C(F)(F)C(F)(F)C(F)(F)C(F)(F)F` (repeat unit), -9.00 °C; to `*CC(*)OC(=O)C(F)(F)C(F)(F)F` (repeat unit), 42.00 °C.
In turn, `*CC(*)OC(=O)C1(C)CCCCC1` (repeat unit) returned a glass transition temperature of 86.00 °C.
Under `*CC(*)OC(=O)C1CCCC1` (repeat unit) stands 36.00 °C; under `*CC(*)OC(=O)CC(C)(C)c1ccccc1` (repeat unit), 20.00 °C.
Under `*CC(*)OC(=O)CC1CCCCC1` (repeat unit) stands 25.00 °C; under `*CC(*)OC(=O)CCCC1CCCCC1` (repeat unit), -10.00 °C.
For the compound `*CC(*)OC(=O)OCC(Cl)(Cl)Cl` (repeat unit), the glass transition temperature was determined as 74.00 °C.
To `*CC(*)OC(=O)OCC(F)(F)F` (repeat unit) belongs 57.00 °C.
`*CC(*)OC(=O)c1ccc(OC)cc1` (repeat unit) returned a glass transition temperature of 86.50 °C.
To `*CC(*)OC(=O)c1ccc(OCC)cc1` (repeat unit) belongs 70.00 °C; to `*CC(*)OC(=O)c1ccc([Si](C)(C)C)cc1` (repeat unit), 130.50 °C.
Under `*CC(*)OC(=O)c1cccc(C)c1` (repeat unit) stands 49.00 °C; under `*CC(*)OC(=O)c1cccc([N+](=O)[O-])c1` (repeat unit), 93.00 °C; under `*CC(*)OC(=O)c1cccc([Si](C)(C)C)c1` (repeat unit), 80.00 °C.
Under `*CC(*)OC(=O)c1ccccc1Cl` (repeat unit) stands 55.8 °C; under `*CC(*)OC(=O)c1cccnc1` (repeat unit), 86.50 °C.
`*CC(*)OCCCCCCCOc1ccc(-c2ccc(C#N)cc2)cc1` (repeat unit) came in with a glass transition temperature of 13.00 °C.
`*CC(*)OCCOc1ccc(/N=N/c2ccc([N+](=O)[O-])cc2)cc1` (repeat unit) registered a glass transition temperature of 54.00 °C.
To `*CC(*)[Si](C)(C)Cc1ccccc1` (repeat unit) belongs -24.00 °C; to `*CC(*)c1c(C)cc(C)cc1C` (repeat unit), 126.00 °C; to `*CC(*)c1c(F)c(F)c(P(=O)(O)O)c(F)c1F` (repeat unit), 330.00 °C.
Under `*CC(*)c1cc(-c2ccc(C(=O)OC(C)CC)cc2)ccc1-c1ccc(C(=O)OC(C)CC)cc1` (repeat unit) stands 212.50 °C; under `*CC(*)c1cc(-c2ccc(C(=O)OC(C)CCCCCC)cc2)ccc1-c1ccc(C(=O)OC(C)CCCCCC)cc1` (repeat unit), 102.00 °C; under `*CC(*)c1cc(Br)ccc1OC` (repeat unit), 86.00 °C.
Under `*CC(*)c1cc(Br)ccc1OC(C)C` (repeat unit) stands 35.00 °C.
The compound `*CC(*)c1cc(Br)ccc1OCCCC` (repeat unit) came in with a glass transition temperature of 47.00 °C.
`*CC(*)c1cc(C(=O)OCCCCCC)ccc1-c1ccc(OCCCCCCCC)cc1` (repeat unit) registered a glass transition temperature of 64.00 °C.
Under `*CC(*)c1cc(C(=O)OCCCCCCCCCC)ccc1-c1ccc(OCCCCCCCC)cc1` (repeat unit) stands 44.00 °C; under `*CC(*)c1cc(C(=O)OCCCCCCCCCCCC)ccc1-c1ccc(OCCCCCCCC)cc1` (repeat unit), 42.00 °C; under `*CC(*)c1cc(C(C)(C)C)ccc1C` (repeat unit), 87.00 °C.
`*CC(*)c1cc(C(F)(F)F)cc(C(F)(F)F)c1` (repeat unit) showed a glass transition temperature of 116.00 °C.
Turning to `*CC(*)c1cc(C)cc(C)c1` (repeat unit), the glass transition temperature was 112.00 °C.
Compound `*CC(*)c1cc(OC)c(OC(C)=O)c(OC)c1` (repeat unit) yielded a glass transition temperature of 147.00 °C.
Take `*CC(*)c1ccc(/C(C)=N/O)cc1` (repeat unit): the glass transition temperature was 134.00 °C.
Under `*CC(*)c1ccc(/C(Cc2ccccc2)=N/O)cc1` (repeat unit) stands 111.00 °C; under `*CC(*)c1ccc(B(Oc2ccc(-c3c(F)c(F)c(F)c(F)c3F)c3cccnc23)c2ccc(C(C)(C)C)cc2)cc1` (repeat unit), 245.00 °C.
With `*CC(*)c1ccc(B(Oc2ccc(-c3ccc(OC)cc3)c3cccnc23)c2ccc(C(C)(C)C)cc2)cc1` (repeat unit), the glass transition temperature turned out to be 220.00 °C.
With `*CC(*)c1ccc(B(Oc2ccc(Cl)c3cccnc23)c2ccc(C(C)(C)C)cc2)cc1` (repeat unit), the glass transition temperature was 238.00 °C.
To `*CC(*)c1ccc(B(Oc2cccc3cccnc23)c2ccc(C(C)(C)C)cc2)cc1` (repeat unit) belongs 240.00 °C; to `*CC(*)c1ccc(C(=O)C(F)(F)F)cc1` (repeat unit), 95.00 °C; to `*CC(*)c1ccc(C(=O)CC)cc1` (repeat unit), 102.00 °C.
`*CC(*)c1ccc(C(=O)CCCCCCC)cc1` (repeat unit) showed a glass transition temperature of 50.00 °C.
Under `*CC(*)c1ccc(C(=O)CCN2CCCCC2)cc1` (repeat unit) stands 38.00 °C; under `*CC(*)c1ccc(C(=O)OC(C)C)cc1` (repeat unit), 95.00 °C.
To `*CC(*)c1ccc(C(=O)OCC(C)C)cc1` (repeat unit) belongs 90.00 °C.
Under `*CC(*)c1ccc(C(=O)OCC)cc1` (repeat unit) stands 94.00 °C; under `*CC(*)c1ccc(C(=O)OCCCC)cc1` (repeat unit), 76.00 °C.
Compound `*CC(*)c1ccc(C(=O)OCCCCCC)cc1` (repeat unit) came in with a glass transition temperature of 66.00 °C.
Under `*CC(*)c1ccc(C(=O)OCCN(CC)CC)cc1` (repeat unit) stands 74.00 °C.
The compound `*CC(*)c1ccc(C(=O)c2ccc(OC)cc2)cc1` (repeat unit) gave a glass transition temperature of 103.00 °C.
As for `*CC(*)c1ccc(C(=O)c2ccccc2)cc1` (repeat unit), the glass transition temperature came out at 98.00 °C.
To `*CC(*)c1ccc(C(C)(O)CCC)cc1` (repeat unit) belongs 135.00 °C; to `*CC(*)c1ccc(C(C)(O)CCCC)cc1` (repeat unit), 90.00 °C; to `*CCCCCCN(CC(F)(F)C(F)(F)C(F)(F)C(F)(F)C(F)(F)C(F)(F)C(F)(F)F)C(=O)C(F)(F)C(F)(F)C(F)(F)C(=O)N(*)CC(F)(F)C(F)(F)C(F)(F)C(F)(F)C(F)(F)C(F)(F)C(F)(F)F` (repeat unit), 187.50 °C.
As for `*OC(F)(C(=O)[N]([Li])S(=O)(=O)C(F)(F)C(*)(F)F)C(F)(F)F` (repeat unit), the glass transition temperature stood at 67.00 °C.
Turning to `*Oc1ccc(S(=O)(=O)c2ccc(Oc3ccc(C(=C)c4ccc(*)cc4)cc3)cc2)cc1` (repeat unit), the glass transition temperature came to 167.00 °C.
